Laboratory results taken from BindingDB's records for doi:10.1016/j.bioorg.2016.01.003 (Panjab University, 2016).

Legend:
Assay in all cases: Radioligand Binding Assay
Adenosine receptor A1 = target: T1, Adenosine receptor A1 (Homo sapiens, UniProt P30542)
T1 sequence (P30542 whole entry): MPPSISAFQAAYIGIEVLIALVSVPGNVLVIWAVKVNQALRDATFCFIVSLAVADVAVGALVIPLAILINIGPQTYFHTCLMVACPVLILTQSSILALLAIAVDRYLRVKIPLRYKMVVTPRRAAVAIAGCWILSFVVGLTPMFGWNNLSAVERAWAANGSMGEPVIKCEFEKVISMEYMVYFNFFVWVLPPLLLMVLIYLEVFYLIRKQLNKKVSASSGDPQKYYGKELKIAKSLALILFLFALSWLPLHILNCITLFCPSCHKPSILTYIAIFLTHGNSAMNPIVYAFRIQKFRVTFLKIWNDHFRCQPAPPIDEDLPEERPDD
Protocol: (§1) Dissociation constants at A1, A2A and A3 receptors (Ki-values) were determined in radioligand competition experiments as reported earlier [19,20]. All binding experiments were done in a microplate format utilizing a 96-well microplate filtration system (Millipore Multiscreen MAFC). As radioligands the agonists [3H]CCPA (1 nM) for A1, [3H]NECA (10 nM) for A2A, and [3H]HEMADO (1 nM) for A3 receptors were used. Samples were incubated with 10 µg of membrane protein for 3 h at 25 °C, filtered through the built-in filter at the bottom of the wells and washed three times with […] of ice-cold binding buffer. After addition of 20 µl of scintillator to the dried filter plates samples were counted in a Wallac Micro-Beta counter. Nonspecific binding was determined in the presence of 1 mM theophylline ([3H]CCPA) or […] (N6-phenylisopropyladenosine; [3H]NECA and [3H] HEMADO).

Adenosine receptor A2a = Adenosine receptor A2a (Homo sapiens, UniProt P29274)
Sequence of Adenosine receptor A2a (P29274 whole entry): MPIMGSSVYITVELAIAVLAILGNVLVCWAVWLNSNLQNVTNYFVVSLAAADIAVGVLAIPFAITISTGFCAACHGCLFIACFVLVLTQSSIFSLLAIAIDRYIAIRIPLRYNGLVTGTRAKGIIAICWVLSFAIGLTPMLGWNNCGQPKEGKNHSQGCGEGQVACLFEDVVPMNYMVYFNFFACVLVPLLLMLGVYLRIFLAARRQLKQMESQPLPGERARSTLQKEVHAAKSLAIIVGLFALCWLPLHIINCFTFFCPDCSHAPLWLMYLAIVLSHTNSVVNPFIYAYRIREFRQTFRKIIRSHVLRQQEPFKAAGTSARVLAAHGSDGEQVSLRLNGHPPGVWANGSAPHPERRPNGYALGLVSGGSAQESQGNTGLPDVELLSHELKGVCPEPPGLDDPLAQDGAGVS
Protocol: as §1

Adenosine receptor A2b = target: T2, Adenosine receptor A2b (Homo sapiens, UniProt P29275)
T2 sequence (P29275 whole entry): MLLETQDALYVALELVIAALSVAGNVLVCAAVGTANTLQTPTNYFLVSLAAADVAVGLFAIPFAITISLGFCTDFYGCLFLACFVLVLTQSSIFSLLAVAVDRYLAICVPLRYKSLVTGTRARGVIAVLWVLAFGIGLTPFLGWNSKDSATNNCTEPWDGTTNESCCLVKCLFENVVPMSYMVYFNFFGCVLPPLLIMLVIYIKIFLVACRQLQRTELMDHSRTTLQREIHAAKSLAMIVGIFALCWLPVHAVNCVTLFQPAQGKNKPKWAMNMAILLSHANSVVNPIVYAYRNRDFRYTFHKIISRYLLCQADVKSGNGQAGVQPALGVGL

Row | Compound | Ki (Adenosine receptor A1) [µM] | Ki (Adenosine receptor A2a) [µM] | Ki (Adenosine receptor A2b) [µM]
1 | COc1cc(-c2nc3c([nH]2)c(=O)n(C)c(=O)n3C)ccc1OCC(=O)NCCN(C)C [1,3-Dimethyl-8-[{4-(2-(dimethylaminoethylamino)-2-oxoethoxy)-3-methoxy}-phenyl]xanthine (15a, RB-386)] | 9.25 | 0.821 | 10
2 | COc1ccc(-c2nc3c([nH]2)c(=O)n(C)c(=O)n3C)cc1OCC(=O)N1CCOCC1 [1,3-Dimethyl-8-[4-methoxy-3-{(2-(morpholin-1-yl)-2-oxoethoxy}-phenyl]-xanthine (16f, RB-415)] | 3.51 | 0.466 | > 10
3 | Cn1c(=O)c2[nH]c(-c3cccc(OCC(=O)n4ccnc4)c3)nc2n(C)c1=O [1,3-Dimethyl-8-[3-{2-(imidazol-1-yl)-2-oxoethoxy}-phenyl]xanthine (14h, RB-445)] | > 30 | 0.509 | > 30
4 | COc1cc(-c2nc3c([nH]2)c(=O)n(C)c(=O)n3C)ccc1OCC(=O)n1ccnc1 [1,3-Dimethyl-8-[{4-(2-(imidazol-1-yl)-2-oxoethoxy)-3-methoxy}-phenyl]xanthine (15h, RB-390)] | > 30 | 7.74 | > 30
5 | CN(C)CCNC(=O)COc1ccc(-c2nc3c([nH]2)c(=O)n(C)c(=O)n3C)cc1 [1,3-Dimethyl-8-[4-{2-(dimethylaminoethylamino)-2-oxoethoxy}-phenyl]xanthine (13a, RB-420)] | 0.22 | 0.1 | 0.903
6 | COC(=O)COc1ccc(-c2nc3c([nH]2)c(=O)n(C)c(=O)n3C)cc1OC [1,3-Dimethyl-8-[{4-(2-methoxy-2-oxoethoxy)-3-methoxy}-phenyl]xanthine (15, RB-384)] | > 30 | 4.38 | > 10
7 | COc1ccc(-c2nc3c([nH]2)c(=O)n(C)c(=O)n3C)cc1OCC(=O)N1CCN(C)CC1 [1,3-Dimethyl-8-[4-methoxy-3-{2-(1-methylpiperazin-4-yl)-2-oxo-ethoxy}-phenyl]xanthine (16g, RB-416)] | 3.64 | 0.685 | 6.54
